Laboratory results: patent publication US11432549B2, “Carbamoyl triazolinone based herbicide combinations and method of use” (Arysta LifeScience Corporation, priority 2009, dated 2022)

Tests used:
Type in all cases: in vivo
[1] = system: Mustard (Sinapsis sp.); experiment: Ex 5/7 greenhouse spray, bleaching/injury ratings
Protocol: (§1) Containers were watered as needed based on species and water usage. The greenhouse was heated to keep temperatures above 50° F. (10° C.) and ventilated as needed to keep temperatures below 100° F. (38° C.). Typical daytime temperatures in the greenhouse were 80-90° F. (27-32° C.) and nighttime temperatures were between 50-60° F. (10-16° C.). The soil employed was Promix BX potting soil. Overall moisture conditions were normal and the closest weather station was on-site. Conditions and equipment employed in this Example are tabulated below in Tables 5-1 and 5-2.
(§2) All containers were moved outdoors from the greenhouse and arranged in blocks by treatment for the herbicide applications. A single spray application was applied to each block containing four repetitions of each species for each treatment. Plants were then immediately returned to the greenhouse and irrigated with approximately ¼″ water 1-3 hrs after treatment with a hose end sprayer. Only the Poa plants were trimmed with scissors two days prior to treatment at a height of approximately 3 inches.
(§3) Referring to FIGS. 2A-B, 3A-C, 4A-C, and 5A-D, all ratings of injury or bleaching are based on a scale from 1 to 9. […] Any bleaching measurement 4 and above was considered unacceptable for desirable turf species. In injury measurements, 1 indicates no injury while 9 indicates a dead plant. Any injury measurement 4 and above was considered unacceptable for desirable turf species). Density correlates with percent cover where 1 indicates no grass while 9 indicates a full pot.
(§4) Replications employed include 4, Untreated treatments: 1, Design: Randomized Complete Block, Treatment units: US standard, Treated plot size Width: 4 feet, Treated plot size Length: 4 feet, Application volume: 50 gal/ac, Mix size: 0.5562 liters, Mix overage: 100%, Format definitions: G-All7.DEF, G-All7.FRM.
(§5) In evaluating synergism, the data from Example 5 above were converted to % of control. This was done based on the data provided on a 1-9 scale detailed in Example 5. Expected values were computed from the % of control data by the formula for expected control=[…], where A is the % of control value for herbicide A alone and B is the % of control value for herbicide B alone.

[2] = system: Green Foxtail; experiment: Ex 5/7 greenhouse spray, bleaching/injury ratings
Protocol: as §1, §2, §3, §4, §5

[3] = system: Ipomoea gradifolia (IAOGR); experiment: Ex 4 pre-emergence, visual % damage; conditions: kg/ha or L/ha: Amicarbazone 1.50, Gesapax 5.00, Karmex 5.00, Provence 0.20, Sencor 3.50, alone
Protocol: (§6) DINAMIC® (amicarbazone) in combination of various herbicides listed in Table 4-1 were tested for herbicidal activity.
The herbicidal effect was observed by comparing the extent of Ipomoea gradifolia (IAOGR) treated with the compounds against that occurring in similar non-treated control. Herbicidal effect was visually assessed and recorded at 14, 23, 36, 49, 65 and 77 days after treatment (DAT). Damage by the herbicidal compositions was evaluated with reference to a scale of 0% to 100% in comparison with untreated control. 0% means no damage and 100% means complete destruction of the plants. […] The theoretical herbicidal effect index were calculated based on Colby and the values were indicated in bracket ( ). […] Some of the observed herbicidal effects were the same as the theoretical hervicidal effects, which indicate additive effects. The underlined values in the table indicate that the observed weed killing is greater than calculated from the Colby formula and therefore indicates a synergistic weed killing effect or activity.

[4] = system: Euphorbia heterophylla (EPHHL); experiment: Ex 4 pre-emergence, visual % damage
Protocol: as §6
The herbicidal effect was observed by comparing the extent of Euphorbia heterophylla (EPHHL) treated with the compounds against that occurring in similar non-treated control. Herbicidal effect was visually assessed and recorded at 14, 23, 36, 49, 65 and 77 days after treatment (DAT). Damage by the herbicidal compositions was evaluated with reference to a scale of 0% to 100% in comparison with untreated control. 0% means no damage and 100% means complete destruction of the plants.
The theoretical herbicidal effect index were calculated based on Colby and the values were indicated in bracket ( ) in Table 4-2. Both of the herbicidal mixtures (amicarbazone+Karmex) and (amicarbazone+Sencor) exert a greater herbicidal action than expected according to Colby on the basis of the observed effects of the individual components when used alone. […] The underlined values in the table indicate that the observed weed killing is greater than calculated from the Colby formula and therefore indicates a synergistic weed killing effect or activity.

[5] = 6 DA-A, Trt 2/4/6: Amicarbazone 0.0219, Tenacity 0.125 lb ai/a
[6] = 6 DA-A, Trt 3/5/9: Amicarbazone 0.131, Tenacity 0.25 lb ai/a
[7] = 7 DA-A, Trt 2/4/6: Amicarbazone 0.0219, Tenacity 0.125 lb ai/a
[8] = 7 DA-A, Trt 3/5/9: Amicarbazone 0.131, Tenacity 0.25 lb ai/a
[9] = rating 1, 0.022 lbs ai/A (0.5 oz/A)
[10] = rating 1, 0.13 lbs ai/A (3 oz/A)
[11] = rating 2, 0.022 lbs ai/A (0.5 oz/A)
[12] = rating 2, 0.13 lbs ai/A (3 oz/A)
[13] = rating 3, 0.022 lbs ai/A (0.5 oz/A)
[14] = rating 3, 0.13 lbs ai/A (3 oz/A)
[15] = rating 4, 0.022 lbs ai/A (0.5 oz/A)
[16] = rating 4, 0.13 lbs ai/A (3 oz/A)
[17] = rating 5, 0.022 lbs ai/A (0.5 oz/A)
[18] = rating 5, 0.13 lbs ai/A (3 oz/A)

Structure (SMILES): CC(C)c1nn(C(=O)NC(C)(C)C)c(=O)n1N [Amicarbazone, 4-amino-5-isopropyl-2-(tert-butyl-aminocarbonyl)-2,4-dihydro-3H-1,2,4-triazol-3-one]
- Injury (1-9 scale) ([1]; 3 DA-A, Trt 2/4/6: Amicarbazone 0.0219, Tenacity 0.125 lb ai/a): 2.8 b
- Injury (1-9 scale) ([1]; 3 DA-A, Trt 3/5/9: Amicarbazone 0.131, Tenacity 0.25 lb ai/a): 6.8 a
- Bleaching (1-9 scale) [1, 5]: 2.0 bc
- Injury (1-9 scale) [1, 5]: 2.8 c
- Bleaching (1-9 scale) [1, 6]: 1.3 c
- Injury (1-9 scale) [1, 6]: 6.5 ab
- Bleaching (1-9 scale) [1, 7]: 2.0 bc
- Injury (1-9 scale) [1, 7]: 4.3 c
- Bleaching (1-9 scale) [1, 8]: 2.0 bc
- Injury (1-9 scale) [1, 8]: 7.0 b
- Injury (1-9 scale) ([1]; 10 DA-A, Trt 2/4/6: Amicarbazone 0.0219, Tenacity 0.125 lb ai/a): 6.0 b
- Injury (1-9 scale) ([1]; 10 DA-A, Trt 3/5/9: Amicarbazone 0.131, Tenacity 0.25 lb ai/a): 8.8 a
- Injury (1-9 scale) ([1]; 14 DA-A, Trt 2/4/6: Amicarbazone 0.0219, Tenacity 0.125 lb ai/a): 5.8 b
- Injury (1-9 scale) ([1]; 14 DA-A, Trt 3/5/9: Amicarbazone 0.131, Tenacity 0.25 lb ai/a): 8.8 a
- Mustard bleaching [1, 9]: 119 % of control
- Mustard injury [1, 9]: 78 % of control
- Mustard bleaching [1, 10]: 132 % of control
- Mustard injury [1, 10]: 28 % of control
- Mustard bleaching [1, 11]: 94 % of control
- Mustard injury [1, 11]: 78 % of control
- Mustard bleaching [1, 12]: 94 % of control
- Mustard injury [1, 12]: 31 % of control
- Mustard injury [1, 13]: 61 % of control
- Mustard injury [1, 14]: 26 % of control
- Mustard injury [1, 15]: 39 % of control
- Mustard injury [1, 16]: 3 % of control
- Mustard injury [1, 17]: 42 % of control
- Mustard injury [1, 18]: 3 % of control
- Green Foxtail bleaching [2, 9]: 100 % of control
- Green Foxtail injury [2, 9]: 97
- Green Foxtail bleaching [2, 10]: 100 % of control
- Green Foxtail injury [2, 10]: 67
- Green Foxtail bleaching [2, 11]: 104 % of control
- Green Foxtail injury [2, 11]: 94
- Green Foxtail bleaching [2, 12]: 104 % of control
- Green Foxtail injury [2, 12]: 69
- Green Foxtail bleaching [2, 13]: 104 % of control
- Green Foxtail injury [2, 13]: 97
- Green Foxtail bleaching [2, 14]: 104 % of control
- Green Foxtail injury [2, 14]: 81
- Green Foxtail bleaching [2, 15]: 104 % of control
- Green Foxtail injury [2, 15]: 97
- Green Foxtail bleaching [2, 16]: 104 % of control
- Green Foxtail injury [2, 16]: 84
- Green Foxtail bleaching [2, 17]: 160 % of control
- Green Foxtail injury [2, 17]: 102
- Green Foxtail bleaching [2, 18]: 106 % of control
- Green Foxtail injury [2, 18]: 77
- Green Foxtail injury ([2]; rating 6, 0.022 lbs ai/A (0.5 oz/A)): 97
- Green Foxtail injury ([2]; rating 6, 0.13 lbs ai/A (3 oz/A)): 73
- Green Foxtail injury ([2]; rating 7, 0.022 lbs ai/A (0.5 oz/A)): 268
- Green Foxtail injury ([2]; rating 7, 0.13 lbs ai/A (3 oz/A)): 144
- percentage control ([3]; 14 DAT): 98%
- percentage control ([3]; 23 DAT): 98%
- percentage control ([3]; 36 DAT): 98%
- percentage control ([3]; 49 DAT): 98%
- percentage control ([3]; 65 DAT): 96%
- percentage control ([3]; 77 DAT): 97%
- percentage control ([4]; 14 DAT, kg/ha or L/ha: Amicarbazone 1.00, Gesapax 3.00, Karmex 3.00, Provence 0.15, Sencor 2.00, alone or Amicarbazone + partner): 96%
- percentage control ([4]; 14 DAT, kg/ha or L/ha: Amicarbazone 1.50, Gesapax 5.00, Karmex 5.00, Provence 0.20, Sencor 3.50, alone): 98%
- percentage control ([4]; 23 DAT, kg/ha or L/ha: Amicarbazone 1.00, Gesapax 3.00, Karmex 3.00, Provence 0.15, Sencor 2.00, alone or Amicarbazone + partner): 96%
- percentage control ([4]; 23 DAT, kg/ha or L/ha: Amicarbazone 1.50, Gesapax 5.00, Karmex 5.00, Provence 0.20, Sencor 3.50, alone): 98%
- percentage control ([4]; 36 DAT, kg/ha or L/ha: Amicarbazone 1.00, Gesapax 3.00, Karmex 3.00, Provence 0.15, Sencor 2.00, alone or Amicarbazone + partner): 96%
- percentage control ([4]; 36 DAT, kg/ha or L/ha: Amicarbazone 1.50, Gesapax 5.00, Karmex 5.00, Provence 0.20, Sencor 3.50, alone): 96%
- percentage control ([4]; 49 DAT, kg/ha or L/ha: Amicarbazone 1.00, Gesapax 3.00, Karmex 3.00, Provence 0.15, Sencor 2.00, alone or Amicarbazone + partner): 79%
- percentage control ([4]; 49 DAT, kg/ha or L/ha: Amicarbazone 1.50, Gesapax 5.00, Karmex 5.00, Provence 0.20, Sencor 3.50, alone): 96%
- percentage control ([4]; 65 DAT, kg/ha or L/ha: Amicarbazone 1.00, Gesapax 3.00, Karmex 3.00, Provence 0.15, Sencor 2.00, alone or Amicarbazone + partner): 79%
- percentage control ([4]; 65 DAT, kg/ha or L/ha: Amicarbazone 1.50, Gesapax 5.00, Karmex 5.00, Provence 0.20, Sencor 3.50, alone): 96%
- percentage control ([4]; 77 DAT, kg/ha or L/ha: Amicarbazone 1.00, Gesapax 3.00, Karmex 3.00, Provence 0.15, Sencor 2.00, alone or Amicarbazone + partner): 75%
- percentage control ([4]; 77 DAT, kg/ha or L/ha: Amicarbazone 1.50, Gesapax 5.00, Karmex 5.00, Provence 0.20, Sencor 3.50, alone): 90%
